Measurements: patent US20220016063A1, “COMPOSITIONS THAT ENHANCE IRON ABSORPTION AND METHODS OF USE THEREOF” (UNIVERSITY OF FLORDIA RESEARCH FOUNDATION, INCORPORATED, priority 2018, published 2022)

Tests used:
[1] = tested on: duodenal epithelial organ cultures; assay: Ussing chamber 59Fe flux studies; set-up: species or system Swiss-Webster mice; details: compared to the other single AAs
Procedure: Ussing chamber technology was utilized to measure Fe flux in the presence of AA formulations. The Ussing chamber was balanced for at least 30 minutes prior to mounting duodenal mouse tissues. Tissues were bathed bilaterally in 10 mL of control or AA-containing buffers, containing 1.5 mM FeSO4.7H2O (“cold” Fe), and were bubbled with a 95% O2 and 5% CO2 gas mixture. Experiments were performed under conditions in which the voltage was clamped to zero, so that there was no net passive diffusion of ions and no driving force for paracellular flux. Duodenal epithelial organ cultures were mounted and equilibrated for approximately 10 minutes and were paired for mucosal-to-serosal and serosal-to-mucosal flux based on similar conductance values. Blank measurements (500 μL) were collected from the “cold” (non-radioactive) side. 15 μCi of ^59Fe (PerkinElmer, catalog #NEZ037500UC) neutralized with N-methyl-D-glucamine (NMDG) was added to each chamber, on either the mucosal or serosal side, depending upon tissue pairing. At 15-minute intervals, 500 μL samples were collected from the “cold” side for 60 minutes, and 500 μL buffer were added back to maintain a fixed volume. […] Radioactivity in the samples was measured using a PerkinElmer gamma counter, and net Fe flux was calculated as Jnet=Jms−Jsm, where Jms is mucosal to serosal flux (absorption) and Jsm is serosal to mucosal flux (secretion). […]

[2] = tested on: DMT1; assay: Ligated duodenal loop studies, DMT1 Western blot of BBMV; set-up: species or system Swiss-Webster mice; details: single AA formulation pH 6.5 in duodenal loop, 45 min 37 °C; relative to control (expression set to 1)
Procedure: Blind loop studies were conducted on 8-10-week-old male Swiss-Webster mice, as they are a commonly used outbred strain. Males were selected for initial screening purposes, but experiments will be repeated in female mice. Mice were sacrificed and duodenal segments (approximately […]) were isolated and flushed with Ringer's buffer. […] After incubation, the luminal liquid was released. […] A standard protocol for isolating BBM protein was performed for Western blot analysis (described below).
Isolation of Brush-Border Membrane Vesicles (BBMV): A light scrape of the duodenal mucosal was placed in 9.9 mL ice-cold lysis buffer with 0.1 mL Halt Protease Inhibitor Cocktail, EDTA-free 100×. Samples were homogenized on ice using an IKA T25 Ultra Turrax device for 2 min. Following homogenization, 500 μL 1 M MgCl2 was added and the sample was rotated at 4° C. for 10 minutes. Samples were then centrifuged at 10,000 rpm for 25 min using a JA-12 rotor in a Beckman-Coulter ultracentrifuge. The supernatant was transferred to new round-bottom tubes and centrifuged again at 19,000 rpm for 40 minutes using a JA-17 rotor. The remaining pellet after the second centrifugation step contained the BBMVs. The pellet was dissolved in 50 μL Ringer's buffer with protease inhibitor at a final concentration of 1×.
Sodium Dodecyl Sulfate-Polyacrylamide Gel Electrophoresis (SDS-PAGE): Protein samples, each containing 30 μg protein, were mixed with 4× Laemmli buffer and 1 M dithiolthreitol (ratio of buffer to DTT was 20:1) and incubated at 37° C. for 30 minutes. 30 μg of protein was then loaded into each lane of 8% polyacrylamide gels. SDS-PAGE was run at 90 V for 30 minutes and increased to 120 V for the duration of the electrophoresis.
Western Blot: Proteins in gels were transferred to PVDF membranes at 60 V for two hours. […] Membranes were then incubated with DMT1 primary antibody (courtesy of François Canonne-Hergaux, French Institute of Health and Medical Research, Bordeaux, France) at a 1:2000 dilution in Odyssey blocking buffer at 4° C. for at least 16 hours. Blots were rinsed with TBST for 15 minutes under fast agitation for a total of three washes. […] Blots were again rinsed with TBST for 15 minutes under fast agitation for a total of three washes. Blots were subsequently imaged and protein band signals were quantified with a Licor Odyssey CLx immunofluorescent instrument. Protein band intensities were then normalized to total protein of each lane stained with Coomassie (Gel Analyzer software) and all data was normalized to respective control lanes on the same blot.

[3] = tested on: Swiss-Webster mice on an Fe-deficient diet; assay: Iron depletion-repletion study (blood hemoglobin); type: in vivo; details: males, 6.3 mM FeSO4 in control formulation, daily 200 μL gavage, 14 days
Procedure: To establish the amount of iron needed to steadily replete a mouse, the concentration was determined theoretically to be 3.15 mM in a 200 μL gavage dose, based on daily food intake and iron requirement of a rodent (35 mg/kg Fe). Two additional concentrations were included in this study: 1.575 mM and 6.3 mM, which are half and double the theoretical concentration, respectively. A control group was given 0 mM Fe gavage on chow diet to obtain normal Hb values. The Fe was dissolved in control formulation (Table 3). Three-week-old male and female Swiss-Webster mice were placed on an Fe-deficient diet in wire-overhang cages for two weeks. After two weeks baseline hemoglobin (Hb) was measured. Daily gavage began in the evening for 14 days. An additional trial included FeSO4 and ferrous fumarate at 6.3 mM and 12.6 mM per iron source, along with a control group with 0 mM Fe gavage on control diet (50 ppm Fe).
Three-week-old male and female Swiss-Webster mice were placed on an Fe-deficient diet for two weeks. After two weeks baseline hemoglobin (Hb) was measured and mice were randomized into groups so that average starting Hb values are similar. They were gavaged every evening after a 1.5 hour fast (just before the “active” phase) with a 200 μL volume containing 6.3 mM FeSO4 in control or 4 AA formulations. […] Hemoglobin was measured every three days to track repletion. […]

NC(=O)CC[C@H](N)C(=O)O [glutamine]
net Fe flux with individual AAs from the 4 AA formulation [1]: lowest flux

C[C@@H](O)[C@H](N)C(=O)O [threonine]
relative DMT1 protein expression on the BBM [2]: lowest relative DMT1 protein expression

CC(C)[C@H](N)C(=O)O [valine]
relative DMT1 protein expression on the BBM [2]: lowest relative DMT1 protein expression

N[C@@H](Cc1ccc(O)cc1)C(=O)O [tyrosine]
relative DMT1 protein expression on the BBM [2]: lowest relative DMT1 protein expression

NCCCC[C@H](N)C(=O)O [lysine]
relative DMT1 protein expression on the BBM [2]: lowest relative DMT1 protein expression

N[C@@H](CO)C(=O)O [serine]
relative DMT1 protein expression on the BBM [2]: lowest relative DMT1 protein expression

O.O.O.O.O.O.O.O=S(=O)([O-])[O-].[Fe+2] [FeSO4]
blood hemoglobin during repletion [3]: steady increase
